Where two headings read alike, the source gives them in different places. Where only a bound is given, the exact number is not on record here.

26 molecules from patent US9732094B2, “Arylquinazolines” (Merck Patent GmbH, priority 2013, dated 2017) can be followed below.

The target of data set [1] is DNA-PK phosphorylation at serine 2056 (Homo sapiens (Human), UniProt P78527). As to the kind of experiment: DNA-PK phosphorylation at serine 2056 (cellular), bleomycin-treated HCT116 cells, ELISA. It is filed as cell-based. Particulars: read-out: IC50 pDNA-PK. In outline: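 After overnight seeding, HCT116 cells received compound with 10 μM bleomycin for 6 h; phospho-DNA-PK ELISA signals were scaled to total DNA-PKcs, DMSO serving as blank.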
For orientation: ELISA stands for enzyme-linked immunosorbent assay.

The next data set has as its target Kv11.1 (hERG) (Homo sapiens (Human), UniProt Q12809). Kind of data set: Kv11.1 (hERG) ion channel activity (patch clamp assay), HEK293 cells transfected with hERG gene. Background: Block of hERG is tested as a sign of cardiac risk.
The next data set has as its target DNA-PK (Homo sapiens (Human), UniProt P78527). Kind of data set: DNA-PK assay (biochemical), flashplate 33P-ATP kinase assay. In outline:
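Radiometric kinase reaction in streptavidin-coated flashplates, stopped with 200 mM EDTA, then 30 min room-temperature incubation and saline washes.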

[2] abbreviates: cellular DNA-PK phosphorylation at serine 2056, HCT116.
Setting [3] is: read-out: Ki [Kv1.11 hERG], hERG patch clamp assay (cells without asterisk).
Setting [4] is: Ki [Kv1.11 hERG], hERG patch clamp assay (cells without asterisk).
Setting [5] is: read-out: Ki [Kv1.11 hERG], Table 5.
[6] abbreviates: cellular, HCT116 cells, 10 μM bleomycin, six hours.
The mark [7] stands for this setting: read-out: Ki [Kv1.11 hERG], patch clamp, HEK293 transfected with hERG gene.
Setting [8] is: Ki [Kv1.11 hERG], patch clamp, HEK293 transfected with hERG gene.

Kv11.1 (hERG), sequence (Q12809 whole entry): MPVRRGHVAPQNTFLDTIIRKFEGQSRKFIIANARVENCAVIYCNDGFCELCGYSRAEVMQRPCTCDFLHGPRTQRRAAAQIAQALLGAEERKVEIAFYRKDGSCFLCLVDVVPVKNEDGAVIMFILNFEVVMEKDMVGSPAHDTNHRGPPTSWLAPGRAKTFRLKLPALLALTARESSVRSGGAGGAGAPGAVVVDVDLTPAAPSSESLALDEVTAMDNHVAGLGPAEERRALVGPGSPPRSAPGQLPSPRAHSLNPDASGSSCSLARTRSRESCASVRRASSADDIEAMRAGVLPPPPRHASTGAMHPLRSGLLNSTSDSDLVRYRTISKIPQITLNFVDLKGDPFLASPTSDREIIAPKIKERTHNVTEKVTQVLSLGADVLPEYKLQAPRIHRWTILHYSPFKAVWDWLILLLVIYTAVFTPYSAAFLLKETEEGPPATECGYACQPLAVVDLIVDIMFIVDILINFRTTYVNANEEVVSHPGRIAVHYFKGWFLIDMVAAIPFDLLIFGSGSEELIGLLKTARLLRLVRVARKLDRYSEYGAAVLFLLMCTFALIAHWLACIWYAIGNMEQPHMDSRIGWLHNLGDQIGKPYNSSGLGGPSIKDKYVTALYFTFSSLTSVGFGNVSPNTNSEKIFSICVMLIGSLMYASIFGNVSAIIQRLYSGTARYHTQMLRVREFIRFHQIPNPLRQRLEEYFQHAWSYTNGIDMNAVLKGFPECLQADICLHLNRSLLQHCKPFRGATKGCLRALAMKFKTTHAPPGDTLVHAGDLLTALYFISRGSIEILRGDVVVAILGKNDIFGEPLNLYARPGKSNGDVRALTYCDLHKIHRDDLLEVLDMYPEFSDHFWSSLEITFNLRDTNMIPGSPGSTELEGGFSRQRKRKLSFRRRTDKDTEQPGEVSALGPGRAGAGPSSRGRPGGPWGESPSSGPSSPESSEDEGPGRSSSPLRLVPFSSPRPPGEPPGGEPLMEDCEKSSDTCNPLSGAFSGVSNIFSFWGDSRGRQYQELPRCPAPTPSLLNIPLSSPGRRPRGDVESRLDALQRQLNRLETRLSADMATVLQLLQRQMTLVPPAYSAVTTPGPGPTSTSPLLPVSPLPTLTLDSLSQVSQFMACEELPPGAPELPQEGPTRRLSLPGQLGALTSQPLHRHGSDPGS
Method for Kv11.1 (hERG): C) Kv11.1 (hERG) Ion Channel Activity (Patch Clamp Assay)
The patch-clamp measurement was carried out at room temperature in whole-cell configuration on human embryonic kidney cells (HEK293) which have been transfected in a stable manner with the hERG gene.
The whole-cell configurations were carried out using an automated patch clamp device (Patchliner™, Nanion Technologies, Munich). […] The glass chip has a hole of defined size to which the cell is transferred into the Gigaseal by application of a reduced pressure and brought into the whole-cell configuration. Buffer, cell suspension and test substances were added to microchannels of the chip using a Teflon-coated pipette. The cells were clamped to a holding potential of −80 mV. For measurement of substance-promoted inhibition of the Kv11.1 channel, the following voltage protocol was applied at 10-second intervals: 51 ms/−80 mV, 500 ms/+40 mV, 500 ms/−40 mV, 200 ms/−80 mV. The leakage current is subtracted by means of the P4 method. The cells were resuspended in extracellular buffer (EC) and applied to the chip. After the cell had been collected, the seal was improved by addition of a seal enhancer buffer. As soon as the whole-cell configuration had been reached, the seal enhancer buffer was washed out and replaced by extracellular buffer. The measurement started in EC for 1.5 min. DMSO (vehicle control, 0.1% of DMSO) was then applied, and the control current was recorded for 3 min. The test substance was subsequently added twice in the same concentration, and the potassium current was measured for 3.5 min in each case.
The reference substance used was the Kv11.1 (hERG) ion channel blocker quinidine. The effects of test substances and quinidine were standardised to the associated vehicle control. The effect on the Kv11.1 (hERG) channel activity was assessed from the potassium current at −40 mV. For the calculation, the current was evaluated for the respective final trace.
During the measurement, an aliquot of the test substance was taken for concentration determination. The sample was measured immediately by HPLC, and the final concentration was determined from a calibration curve.

On to `Cc1cncnc1C(C(N)=O)c1cc(-c2ncnc3cc(N4CCOCC4)ccc23)ccc1Cl` (stereo not drawn) [Example 407, 2-[2-Chloro-5-(7-morpholin-4-yl-quinazolin-4-yl)-phenyl]-2-(5-methyl-pyrimidin-4-yl)-acetamide], for which the IC50 is 0.5 to 5 µM in data set [1] (setting [2]) and less than 3 nM against DNA-PK (biochemical DNA-PK assay). On Kv11.1 (hERG) (setting [3]), the Ki lay in the range of 15 to 25 µM.

As for `CNC(=O)C(c1cc(-c2ncnc3cc(N4CCOCC4)ccc23)c(F)cc1Cl)c1nccnc1OC` (stereo not drawn) [Example 229, 2-[2-Chloro-4-fluoro-5-(7-morpholin-4-yl-quinazolin-4-yl)-phenyl]-2-(3-methoxypyrazin-2-yl)-N-methyl-acetamide], the IC50 was in the range of 0.5 to 5 µM in data set [1] (setting [2]) and 7 to 30 nM on DNA-PK (biochemical DNA-PK assay). The Ki on Kv11.1 (hERG) (setting [3]) is greater than 25 µM.

`OC(c1ccc(F)c(-c2ncnc3cc(N4CCOCC4)ccc23)c1)c1ncnc2ccoc12` (stereo not drawn) [Example 442, [4-Fluoro-3-(7-morpholin-4-yl-quinazolin-4-yl)-phenyl]furo[3,2-d}-pyrimidin-4-yl-methanol]: the values for the IC50 (in data set [1] (setting [2]); on DNA-PK (biochemical DNA-PK assay)) were less than 0.5 µM and less than 3 nM, respectively. The Ki at Kv11.1 (hERG) (setting [3]) was greater than 25 µM.

For the molecule `COc1nccnc1[C@@H](O)c1cc(-c2ncnc3cc(N4CCOCC4)ccc23)ccc1Cl` [Example 411, (S)-[2-Chloro-5-(7-morpholin-4-yl-quinazolin-4-yl)-phenyl]-(3-methoxy-pyrazin-2-yl)-methanol], the IC50 in data set [1] (setting [2]) lay within 0.5 to 5 µM; on DNA-PK (biochemical DNA-PK assay) it was 3 to 7 nM. On Kv11.1 (hERG) (setting [4]), this molecule returned a Ki of 10 to 15 µM.

In the case of `OC(c1ccc(F)c(-c2ncnc3cc(N4CCOCC4)ccc23)c1)c1nccnc1OC(F)F` (stereo not drawn) [Example 464, (3-Difluoromethoxy-pyrazin-2-yl)-[4-fluoro-3-(7-morpholin-4-yl-quinazolin-4-yl)-phenyl]methanol], the IC50 is 0.5 to 5 µM in data set [1] (setting [2]) and 3 to 7 nM against DNA-PK (biochemical DNA-PK assay). Besides, the Ki on Kv11.1 (hERG) (setting [4]) was 15 to 25 µM.

Consider `Cn1c(C(O)c2cc(-c3ncnc4cc(N5CCOCC5)ccc34)c(F)cc2Cl)cccc1=O` (stereo not drawn) [Example 382, 6-{[2-Chloro-4-fluoro-5-(7-morpholin-4-yl-quinazolin-4-yl)-phenyl]hydroxy-melhyl}-1-methyl-1H-pyridin-2-one], for which the IC50 in data set [1] (setting [2]) lay in the range of 0.5 to 5 µM; against DNA-PK (biochemical DNA-PK assay) it was 7 to 30 nM. This molecule yielded a Ki on Kv11.1 (hERG) (setting [4]) of 15 to 25 µM.

Consider `Fc1ccc(C(OC(F)F)c2nccs2)cc1-c1ncnc2cc(N3CCOCC3)ccc12` (stereo not drawn) [Example 199, 4-[5-(Difluoro-methoxy-thiazol-2-ylmethyl)-2-fluoro-phenyl]-7-morpholin-4-yl-quinazoline], for which the IC50 in data set [1] (Table 5, HCT116 cells) was in the range of 10 to 30 µM; on DNA-PK (Table 5), 3 to 7 nM. In addition, the Ki at Kv11.1 (hERG) (setting [5]) was less than 10 µM.

For `Cn1c(C(O)c2cc(-c3ncnc4cc(N5CCOCC5)ccc34)c(F)cc2F)cccc1=O` (stereo not drawn) [Example 381, 6-{[2,4-Difluoro-5-(7-morpholin-4-yl-quinazolin-4-yl)-phenyl]hydroxy-methyl}-1-methyl-1H-pyridin-2-one], the 50% inhibitory concentration (IC50) in data set [1] (setting [2]) is 0.5 to 5 µM; at DNA-PK (biochemical DNA-PK assay) it was less than 3 nM. In addition, at Kv11.1 (hERG) (setting [3]), the Ki was greater than 25 µM.

On to `COc1nccnc1C(O)c1cc(-c2ncnc3cc(N4CCOCC4)ccc23)ccc1Cl` (stereo not drawn) [Example 410, [2-Chloro-5-(7-morpholin-4-yl-quinazolin-4-yl)-phenyl]-(3-methoxy-pyrazin-2-yl)-methanol], for which the IC50 was less than 0.5 µM in data set [1] (setting [2]) and less than 3 nM on DNA-PK (biochemical DNA-PK assay). In addition, on Kv11.1 (hERG) (setting [3]), the Ki is less than 10 µM.

In the case of `COc1nccnc1C(O)c1cc(-c2ncnc3cc(N4CCOCC4)cnc23)c(F)cc1Cl` (stereo not drawn) [Example 247, [2-Chloro-4-fluoro-5-(7-morpholin-4-yl-pyrido[3,2-d}-pyrimidin-4-yl)-phenyl]-(3-methoxy-pyrazin-2-yl)-methanol], the figures for the IC50 (in data set [1] (setting [2]); against DNA-PK (biochemical DNA-PK assay)) were 5 to 10 µM and 7 to 30 nM, respectively. This molecule also registered a Ki on Kv11.1 (hERG) (setting [4]) of 15 to 25 µM.

With `Cc1nccnc1C(O)c1cc(-c2ncnc3cc(N4CCOCC4)ccc23)ccc1Cl` (stereo not drawn) [Example 427, [2-Chloro-5-(7-morpholin-4-yl-quinazolin-4-yl)-phenyl]-(3-methyl-pyrazin-2-yl)-methanol], the IC50 was in the range of 0.5 to 5 µM in data set [1] (setting [2]) and 7 to 30 nM on DNA-PK (biochemical DNA-PK assay). For the same molecule, the inhibition constant Ki at Kv11.1 (hERG) (setting [4]) was in the range of 15 to 25 µM.

As to `Cc1nccnc1C(O)c1cc(-c2ncnc3cc(N4CCOCC4)ccc23)c(F)cc1F` (stereo not drawn) [Example 86], the IC50 is less than 0.5 µM in data set [1] (setting [6]) and less than 3 nM against DNA-PK (enzymatic, 5 μM ATP). In addition, at Kv11.1 (hERG) (setting [7]), the Ki is greater than 25 µM.

In the case of `COc1cncnc1C(O)c1cc(-c2ncnc3cc(N4CCOCC4)ccc23)ccc1Cl` (stereo not drawn) [Example 413, [2-Chloro-5-(7-morpholin-4-yl-quinazolin-4-yl}-phenyl]-(5-methoxy-pyrimidin-4-yl)-methanol], the figures for the IC50 (in data set [1] (setting [2]); on DNA-PK (biochemical DNA-PK assay)) were 0.5 to 5 µM and 3 to 7 nM, respectively. In addition, the Ki at Kv11.1 (hERG) (setting [4]) lay in the range of 15 to 25 µM.

Regarding `OC(c1cccc(-c2ncnc3cc(N4CCOCC4)ccc23)c1)c1nccs1` (stereo not drawn) [Example 150, [3-(7-Morpholin-4-ylquinazolin-4-yl)-phenyl]thiazol-2-yl-methanol], the IC50 lay in the range of 5 to 10 µM in data set [1] (Table 5, HCT116 cells) and 7 to 30 nM on DNA-PK (Table 5). Also, the Ki at Kv11.1 (hERG) (setting [5]) was greater than 25 µM.

As to `COc1nccnc1C(C(N)=O)c1cc(-c2ncnc3cc(N4CCOCC4)ccc23)c(F)cc1Cl` (stereo not drawn) [Example 320, 2-[2-Chloro-4-fluoro-5-(7-morpholin-4-yl-quinazolin-4-yl)-phenyl]-2-(3-methoxy-pyrazin-2-yl)acetamide], the IC50 in data set [1] (setting [2]) fell in the range of 0.5 to 5 µM; against DNA-PK (biochemical DNA-PK assay), 7 to 30 nM. Besides, the Ki on Kv11.1 (hERG) (setting [3]) was greater than 25 µM.

Regarding `Cn1nc(C(C(N)=O)c2ccc(F)c(-c3ncnc4cc(N5CCOCC5)ccc34)c2)ccc1=O` (stereo not drawn) [Example 317, 2-[4-Fluoro-3-(7-morpholin-4-yl-quinazolin-4-yl)-phenyl]-2-(1-methyl-6-oxo-1,6-dihydro-pyridazin-3-yl)-acetamide], the values for the IC50 (in data set [1] (setting [2]); at DNA-PK (biochemical DNA-PK assay)) were 10 to 30 µM and greater than 30 nM, respectively. Also, the Ki on Kv11.1 (hERG) (setting [4]) is 15 to 25 µM.

Take `OC(c1ccnnc1)c1cc(-c2ncnc3cc(N4CCOCC4)ccc23)c(F)cc1Cl` (stereo not drawn) [Example 36, [2-Chloro-4-fluoro-5-(7-morpholin-4-yl-quinazolin-4-yl)phenyl]-pyridazin-4-ylmethanol]: the IC50 in data set [1] (setting [6]) is less than 0.5 µM; at DNA-PK (enzymatic, 5 μM ATP) it was less than 3 nM. Moreover, on Kv11.1 (hERG) (setting [7]), the Ki is greater than 25 µM.

With `COc1ccc([C@@H](O)c2ccc(F)c(-c3ncnc4cc(N5CCOCC5)ccc34)c2)nn1` [Example 72, (S)-[4-Fluoro-3-(7-morpholin-4-yl-quinazolin-4-yl)phenyl]-(6-methoxypyridazin-3-yl)methanol], the IC50 was 0.5 to 5 µM in data set [1] (setting [6]) and less than 3 nM against DNA-PK (enzymatic, 5 μM ATP). Also, at Kv11.1 (hERG) (setting [7]), the Ki is greater than 25 µM.

For `OC(c1cc(-c2ncnc3cc(N4CCOCC4)ccc23)ccc1Cl)c1ncnc2ccsc12` (stereo not drawn) [Example 89, [2-Chloro-5-(7-morpholin-4-yl-quinazolin-4-yl)-phenyl]thieno[3,2-d}-pyrimidin-4-ylmethanol], the IC50 in data set [1] (setting [6]) was less than 0.5 µM; at DNA-PK (enzymatic, 5 μM ATP) it was 3 to 7 nM. Moreover, the Ki at Kv11.1 (hERG) (setting [8]) lay in the range of 10 to 15 µM.

Consider `OC(c1cccnn1)c1cc(-c2ncnc3cc(N4CCOCC4)ccc23)ccc1Cl` (single isomer, unassigned) [Example 470, [2-Chloro-5-(7-morpholin-4-yl-quinazolin-4-yl)-phenyl]pyridazin-3-yl-methanol], for which the values for the IC50 (in data set [1] (setting [2]); against DNA-PK (biochemical DNA-PK assay)) were less than 0.5 µM and 3 to 7 nM, respectively. On Kv11.1 (hERG) (setting [3]), the Ki is greater than 25 µM.

Take `Cc1nc(C(O)c2cnc(F)c(-c3ncnc4cc(N5CCOCC5)ncc34)c2)sc1C` (stereo not drawn) [Example 203, (4,5-Dimethyl-thiazol-2-yl)-[6-fluoro-5-(7-morpholin-4-yl-pyrido[4,3-d}-pyrimidin-4-yl)-pyridin-3-yl]-methanol]: the IC50 was 10 to 30 µM in data set [1] (Table 5, HCT116 cells) and greater than 30 nM at DNA-PK (Table 5). The Ki at Kv11.1 (hERG) (setting [5]) is greater than 25 µM.

For the molecule `COc1cncnc1C(O)c1ccc(F)c(-c2ncnc3cc(N4CCOCC4)ccc23)c1` (stereo not drawn) [Example 87, [4-Fluoro-3-(7-morpholin-4-yl-quinazolin-4-yl)-phenyl]-(5-methoxy-pyrimidin-4-yl)-methanol], the IC50 was less than 0.5 µM in data set [1] (setting [6]) and less than 3 nM at DNA-PK (enzymatic, 5 μM ATP). Besides, the Ki on Kv11.1 (hERG) (setting [8]) was in the range of 15 to 25 µM.

Consider `COc1cc(Cl)nnc1C(O)c1ccc(F)c(-c2ncnc3cc(N4CCOCC4)ccc23)c1` (stereo not drawn) [Example 10, (6-Chloro-4-methoxy-pyridazin-3-yl)-[4-fluoro-3-(7-morpholin-4-yl-quinazolin-4-yl)phenyl]-methanol], for which the IC50 in data set [1] (setting [6]) was less than 0.5 µM; at DNA-PK (enzymatic, 5 μM ATP), 3 to 7 nM. The Ki on Kv11.1 (hERG) (setting [7]) was greater than 25 µM.

With `OC(c1ccc(Cl)nn1)c1cc(-c2ncnc3cc(N4CCOCC4)ccc23)c(F)cc1Cl` (stereo not drawn) [Example 41, [2-Chloro-4-fluoro-5-(7-morpholin-4-yl-quinazolin-4-yl)phenyl]-(6-chloro-pyridazin-3-yl)methanol], the IC50 in data set [1] (setting [6]) is less than 0.5 µM; on DNA-PK (enzymatic, 5 μM ATP), 3 to 7 nM. The Ki at Kv11.1 (hERG) (setting [8]) fell in the range of 15 to 25 µM.

`Cn1nc(C(O)c2ccc(F)c(-c3ncnc4cc(N5CCOCC5)ccc34)c2)ccc1=O` (stereo not drawn) [Example 326, 6-{[4-Fluoro-3-(7-morpholin-4-yl-quinazolin-4-yl)-phenyl]hydroxy-methyl}-2-methyl-2H-pyridazin-3-one]: the IC50 in data set [1] (setting [2]) was 0.5 to 5 µM; at DNA-PK (biochemical DNA-PK assay), 7 to 30 nM. Besides, the Ki at Kv11.1 (hERG) (setting [3]) was greater than 25 µM.

For `Nc1cncc(C(O)c2ccc(F)c(-c3ncnc4cc(N5CCOCC5)ccc34)c2)n1` (stereo not drawn) [Example 302, (6-Amino-pyrazin-2-yl)-[4-fluoro-3-(7-morpholin-4-yl-quinazolin-4-yl)-phenyl]methanol], the values for the IC50 (in data set [1] (setting [2]); against DNA-PK (biochemical DNA-PK assay)) were 5 to 10 µM and 3 to 7 nM, respectively. Further, the Ki at Kv11.1 (hERG) (setting [3]) was greater than 25 µM.

What is called IC50 is the concentration that inhibits the measured activity by half. As a reminder, the Ki is the dissociation constant of the complex between target and ligand, obtained from inhibition or displacement.
